We go through eleven compounds from ChEMBL document CHEMBL1201862, “PubChem BioAssay data set” (2004).

Among the test systems are SK-OV-3; HT-29; HOP-62; SK-MEL-5; U-251; DU-145; SNB-19; RXF 393; OVCAR-8; ACHN; SW-620; K562; NCI-H23; HOP-92; OVCAR-5; MCF7; Malme-3M; UACC-62; XF498; RXF 631.
What all share (assay): NCI-60 cell line screen, 48 h

The structures appear in SMILES notation. Values joined by “and” are separate entries in the source; they are usually repeats but may differ in a detail not shown here. Identical values can stand only once.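 Compound exposure: 48 hours, 5 concentrations, 96-well plates. Here, GI50 denotes the concentration required for 50% inhibition of growth.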 Active and inactive are the calls of the source. Cut-off read from the data, not from the text of the source: active = GI50 up to about 1.1 µM and inactive = higher.

Consider `CC(NC(=O)C(NC(=O)CNC(=O)OC(C)(C)C)C(C)C)C(=O)Oc1c(Cl)c(Cl)c(Cl)c(Cl)c1Cl` (centres undefined), for which the GI50 in the test with SK-OV-3 was 21.5 µM (inactive); in the test on HT-29 it was 26.4 µM (inactive); with HOP-62 it was 18.4 µM (inactive); with SK-MEL-5, 17.1 µM (inactive); in the test with U-251 it was 21.1 µM (inactive); in the test on DU-145, 20.5 µM (inactive). Besides, the GI50 with SNB-19 is 30.8 µM (inactive); in the test with RXF 393, 17.5 µM (inactive); with OVCAR-8, 19.4 µM (inactive); in the test with ACHN, 21.8 µM (inactive); with SW-620, 24.7 µM (inactive); in the test on K562 it was 50.7 µM (inactive). For the same compound, the GI50 in the test on NCI-H23 was 14 µM (inactive); in the test on HOP-92, 16.3 µM (inactive); in the test with OVCAR-5 it was 14.7 µM (inactive); with MCF7, 25.5 µM (inactive); with Malme-3M it was 21.5 µM (inactive); in the test on UACC-62, 18.2 µM (inactive).
As for `CC1(CO)C(O)CCC2(C)C1C(O)CC1CC3CC12CCC3(O)CO` (centres undefined), the GI50 was > 225 µM (inactive) with SK-OV-3; > 225 µM (inactive) in the test with HT-29; > 225 µM (inactive) in the test with HOP-62; 29.6 µM (inactive) in the test on XF498; > 225 µM (inactive) with SK-MEL-5; > 225 µM (inactive) in the test on U-251. Besides, the GI50 was > 225 µM (inactive) with SNB-19; > 225 µM (inactive) in the test on RXF 393; > 213 µM (inactive) in the test with OVCAR-8; > 225 µM (inactive) in the test on SW-620; > 225 µM (inactive) with K562; > 225 µM (inactive) in the test with NCI-H23. The GI50 in the test on HOP-92 was > 225 µM (inactive); in the test on OVCAR-5 it was > 225 µM (inactive); in the test with MCF7 it was > 217 µM (inactive); in the test on Malme-3M, > 225 µM (inactive); in the test on UACC-62, > 225 µM (inactive).
Consider `Cc1cc(OCC(O)CO)ccc1Cl` (centres undefined), for which the GI50 in the test on SK-OV-3, with HT-29, with HOP-62, in the test with SK-MEL-5, in the test with U-251 and in the test with SNB-19 was > 100 µM (inactive) throughout. Further, the GI50 in the test on RXF 393, with OVCAR-8, in the test on ACHN, in the test with SW-620, in the test on K562 and in the test on NCI-H23 was > 100 µM (inactive) throughout. For the same compound, the GI50 with RXF 631, in the test with HOP-92, in the test with OVCAR-5, in the test on Malme-3M and in the test with UACC-62 was > 100 µM (inactive) each time.
In the case of `N#CCCN(CCC#N)c1ccc(/C=C2\N=C(c3cc([N+](=O)[O-])ccc3Cl)N(NC(=O)CC(=O)Nc3ccccc3Cl)C2=O)cc1`, the GI50 in the test with SK-OV-3, with HOP-62, with XF498, with SK-MEL-5, in the test with U-251 and in the test on SNB-19 was > 100 µM (inactive) in each case. Moreover, the GI50 with RXF 393, in the test on OVCAR-8, in the test on ACHN, in the test with SW-620, in the test on K562 and in the test with NCI-H23 was > 100 µM (inactive) in each case. The GI50 with HOP-92 is > 100 µM (inactive); in the test on OVCAR-5 it was 26.5 µM (inactive); with Malme-3M, > 100 µM (inactive); in the test on UACC-62, > 100 µM (inactive).
For `CC/C(CC(=O)CCC(=O)Nc1ccc(C)c(C)c1)=N\NC(=O)c1cc2ccccc2cc1O`, the GI50 in the test with SK-OV-3 is 13.6 µM (inactive); with HT-29, 38.5 µM (inactive); with HOP-62, 26 µM (inactive); in the test with U-251 it was 28.8 µM (inactive); in the test with SNB-19, 39.1 µM (inactive); with RXF 393 it was 15.1 µM (inactive). The GI50 was 21.4 µM (inactive) in the test on OVCAR-8; 24.9 µM (inactive) in the test on ACHN; 30.2 µM (inactive) with SW-620; 21.8 µM (inactive) in the test with K562; 23.6 µM (inactive) with NCI-H23; 69.5 µM (inactive) with RXF 631. Further, the GI50 was 31.2 µM (inactive) in the test with HOP-92, 31 µM (inactive) in the test on OVCAR-5, 24.8 µM (inactive) in the test with Malme-3M and 14.6 µM (inactive) in the test with UACC-62.
For `COc1ccc(NC(=O)/C(=C/c2ccc(N(CCC#N)CCC#N)cc2)NC(=O)c2cc([N+](=O)[O-])ccc2Cl)cc1`, the GI50 with SK-OV-3 was > 100 µM (inactive); with HOP-62, 33.2 µM (inactive); in the test on XF498 it was > 100 µM (inactive); with SK-MEL-5, > 100 µM (inactive); in the test with U-251, > 100 µM (inactive); with SNB-19, > 100 µM (inactive). The GI50 is > 100 µM (inactive) in the test with RXF 393; 38.9 µM (inactive) with OVCAR-8; 10.1 µM (inactive) with ACHN; 98.6 µM (inactive) with SW-620; 6.76 µM (inactive) in the test on K562; > 100 µM (inactive) in the test on NCI-H23. Moreover, the GI50 in the test with RXF 631 was 99.5 µM (inactive); in the test with HOP-92, > 100 µM (inactive); in the test on OVCAR-5, > 100 µM (inactive); in the test with Malme-3M it was > 100 µM (inactive); in the test on UACC-62, 13.3 µM (inactive).
`COC(=N)C(C)C`: the GI50 in the test on SK-OV-3, with HT-29, in the test with HOP-62, in the test with SK-MEL-5, in the test on U-251 and in the test with SNB-19 was > 100 µM (inactive) each time. Further, the GI50 in the test on RXF 393, in the test on ACHN, in the test on SW-620, in the test on K562, in the test on NCI-H23 and with HOP-92 was > 100 µM (inactive) each time. Moreover, the GI50 with OVCAR-5, in the test on Malme-3M and in the test on UACC-62 was > 100 µM (inactive) each time.
For the compound `NC(CSC(=O)c1ccccc1)C(=O)O` (centres undefined), the GI50 with SK-OV-3, in the test with HT-29, with HOP-62, with SK-MEL-5, in the test with U-251 and in the test on DU-145 was > 100 µM (inactive) each time. Also, the GI50 with SNB-19, in the test with RXF 393, with OVCAR-8, with ACHN, in the test with SW-620 and in the test with NCI-H23 was > 100 µM (inactive) each time. The GI50 in the test with HOP-92, in the test with OVCAR-5, in the test on MCF7, with Malme-3M and with UACC-62 was > 100 µM (inactive) throughout.
`CC#CC#C/C=C1\C=CC2(OC=CC2OC(C)=O)O1` (centres undefined): the GI50 with SK-OV-3 is > 100 µM (inactive) and > 89.1 µM (inactive); with HT-29 it was 16.1 µM (inactive) and 22.4 µM (inactive); in the test on HOP-62, > 100 µM (inactive); in the test with XF498, 21.3 µM (inactive); with SK-MEL-5 it was 17.9 µM (inactive); in the test with U-251, 19.5 µM (inactive) and 18.5 µM (inactive). Also, the GI50 in the test with DU-145 was 20.4 µM (inactive); in the test on SNB-19, > 100 µM (inactive) and > 82.2 µM (inactive); in the test with RXF 393, 12.6 µM (inactive); in the test with OVCAR-8, 31.4 µM (inactive) and 17.9 µM (inactive); in the test with ACHN, 10.4 µM (inactive); with SW-620, 24.8 µM (inactive) and 18.8 µM (inactive). Besides, the GI50 is 25.6 µM (inactive) and 19 µM (inactive) in the test on K562; 15 µM (inactive) and 11 µM (inactive) in the test on NCI-H23; 14.5 µM (inactive) in the test with RXF 631; 20.6 µM (inactive) and 22.3 µM (inactive) in the test with HOP-92; 14.4 µM (inactive) in the test on MCF7; 24.8 µM (inactive) and 26.4 µM (inactive) with Malme-3M. In addition, the GI50 in the test on UACC-62 is 18.9 µM (inactive) and 16.4 µM (inactive).
As for `O=C1C=C2SC3C[C@@]24CC1(O)[N+]1=c2c4c(c(O)c4c2=C(C=N4)CC1)N3`, the GI50 was 1.95 µM (inactive) in the test with SK-OV-3; 0.299 µM (active) in the test with HT-29; 1.82 µM (inactive) with HOP-62; 1.85 µM (inactive) in the test on XF498; 1.5 µM (inactive) with SK-MEL-5; 1.75 µM (inactive) with U-251. In addition, the GI50 in the test on SNB-19 is 1.74 µM (inactive); with RXF 393 it was 1.35 µM (inactive); with OVCAR-8, 0.33 µM (active); in the test on SW-620, 0.33 µM (active); with K562 it was 0.64 µM (active); with NCI-H23 it was 1.3 µM (inactive). Also, the GI50 is 1.35 µM (inactive) in the test on HOP-92, 2.33 µM (inactive) in the test on OVCAR-5, 0.278 µM (active) with MCF7 and 0.533 µM (active) in the test with UACC-62.
With `COc1ccc(-c2cc(O)c3cc(C)cnc3n2)cc1`, the GI50 in the test on SK-OV-3 was 4.14 µM (inactive); in the test on HT-29, 2.21 µM (inactive); in the test on HOP-62 it was 6.56 µM (inactive); in the test with DU-145, 19.2 µM (inactive); in the test with SNB-19, > 100 µM (inactive); in the test on RXF 393, 7.94 µM (inactive). Besides, the GI50 was 4.57 µM (inactive) in the test with OVCAR-8; 7.06 µM (inactive) in the test with ACHN; 3.24 µM (inactive) in the test with SW-620; 2.29 µM (inactive) in the test with K562; 6.19 µM (inactive) in the test with NCI-H23; 13.8 µM (inactive) with HOP-92. For the same compound, the GI50 is 93.8 µM (inactive) with OVCAR-5, 2.72 µM (inactive) in the test with MCF7, 4.67 µM (inactive) with Malme-3M and 4.29 µM (inactive) with UACC-62.
